Assay results as given in patent publication US20150258108A1 (priority 2014, published 2015).
Where “and” joins values, the source holds several entries; their conditions need not be identical. Equal values may be shown once. Entries after “also recorded” stand apart in the source; their conditions may differ.

What was measured:
[1] = Safety and tolerability of noribogaine in healthy humans; type: in vivo, human
Procedure: Safety and tolerability of noribogaine were tested in the group of volunteers from Example 1. Cold pressor testing was conducted in 1° C. water according to the method of Mitchell et al. (J. Pain 5:233-237, 2004) pre-dose, 6, 24, 48, 72 and 216 hours post-dosing. Safety evaluations included clinical monitoring, recording of adverse events (AEs), safety laboratory tests, vital signs, ECG telemetry from −2 h to 6 h after dosing, and 12-lead electrocardiograms (ECGs) up to 216 hours post-dosing.

[2] = QT interval (ΔQTcl) in opioid-dependent patients; type: in vivo, human; details: 60, 120, 180 mg, first 24 hours; correlated with serum concentration
Procedure: Patients' QT intervals were evaluated at regular time points throughout the study.

[3] = test system: OPRD: human opioid receptor delta; details: previously shown; cited from earlier work
human OPRM [4] = molecular target: T1, human OPRM (Homo sapiens, UniProt P35372); assay: cell-based; type: cell-based; set-up: host or cells: CHO-K1
T1 sequence (P35372 whole entry): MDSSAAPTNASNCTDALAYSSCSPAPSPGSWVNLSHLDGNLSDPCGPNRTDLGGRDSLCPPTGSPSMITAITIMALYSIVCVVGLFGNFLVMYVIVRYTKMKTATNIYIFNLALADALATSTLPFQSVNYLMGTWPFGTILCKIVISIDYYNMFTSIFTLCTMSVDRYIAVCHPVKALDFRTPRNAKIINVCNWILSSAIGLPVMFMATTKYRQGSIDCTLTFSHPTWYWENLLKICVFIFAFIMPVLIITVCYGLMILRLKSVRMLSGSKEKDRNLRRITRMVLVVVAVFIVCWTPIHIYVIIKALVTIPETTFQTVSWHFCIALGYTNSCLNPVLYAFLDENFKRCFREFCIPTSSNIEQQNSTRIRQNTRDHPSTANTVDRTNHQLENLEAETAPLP

OPRK = OPRK (Homo sapiens, UniProt P41145); assay: biochemical; set-up: purchased PerkinElmer Life Sciences (Boston, Mass.)
Sequence of OPRK (P41145 whole entry): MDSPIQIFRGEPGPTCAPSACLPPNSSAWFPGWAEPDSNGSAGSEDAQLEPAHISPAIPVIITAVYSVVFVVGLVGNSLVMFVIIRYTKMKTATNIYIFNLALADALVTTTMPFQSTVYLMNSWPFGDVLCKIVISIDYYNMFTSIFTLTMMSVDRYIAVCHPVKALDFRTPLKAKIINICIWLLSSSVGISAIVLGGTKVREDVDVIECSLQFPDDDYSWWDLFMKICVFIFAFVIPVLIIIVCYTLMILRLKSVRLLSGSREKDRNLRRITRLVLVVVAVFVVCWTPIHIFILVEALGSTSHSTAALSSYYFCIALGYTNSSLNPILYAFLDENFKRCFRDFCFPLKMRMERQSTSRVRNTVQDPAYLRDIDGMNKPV

[5] = Pharmacokinetics in opioid-dependent patients (Phase IB); details: 60, 120, 180 mg cohorts
[6] = Ascending single-dose pharmacokinetics of noribogaine in healthy volunteers; details: for CL/F / Tmax: fasted healthy males, mean (SD), n = 6; for mean AUC/24 hr / mean AUC/24: fasting, serum
[7] = Treatment emergent adverse events in opioid-dependent participants (Phase IB)
[8] = molecular target: human OPRM (μ-opioid receptor) (Homo sapiens, UniProt P35372); assay: biochemical; type: binding; set-up: expressed in transfected cells; host or cells: CHO-K1 (cell lines provided by Dr. Toll, Torrey Pines Institute)
Sequence of human OPRM (μ-opioid receptor) (P35372 whole entry): as the sequence (P35372 whole entry) above

human OPRM [9] = molecular target: T1, human OPRM; assay: biochemical; type: biochemical; set-up: expressed in transfected cells; host or cells: CHO-K1 (cell lines provided by Dr. Toll, Torrey Pines Institute)
[10] = 60 mg single dose, opioid-dependent patients, N = 6, events:subjects (%)
[11] = 120 mg single dose, opioid-dependent patients, N = 6, events:subjects (%)
[12] = 180 mg single dose, opioid-dependent patients, N = 6, events:subjects (%)

CC[C@H]1CC2C[C@H]3c4[nH]c5ccc(O)cc5c4CCN(C2)C13 [Noribogaine]
adverse events reported ([1]; 3 mg dose group, healthy volunteers): five adverse events were reported by two subjects | adverse events reported ([1]; 10 mg dose group, healthy volunteers): one adverse event was reported by single subjects | adverse events reported ([1]; 30 mg dose group, healthy volunteers): one adverse event was reported by single subjects | oximetry, capnography, respiratory rate ([1]; 3-60 mg, healthy volunteers): no changes in oximetry or capnography, or changes in respiratory rate | vital signs and safety laboratory tests ([1]; 3-60 mg, healthy volunteers): no changes in vital signs or safety laboratory tests of note | Adverse events: Mild ([1]; Dose 3 mg, healthy volunteers): Dizziness; also recorded: Epistaxis; also recorded: Headache; also recorded: Back pain | Adverse events: Moderate ([1]; Dose 3 mg, healthy volunteers): Headache | Adverse events: Mild ([1]; Dose 10 mg, healthy volunteers): Headache | Adverse events: Mild ([1]; Dose 30 mg, healthy volunteers): Headache | QTcF values ([1]; any time, all dose groups 3-60 mg, healthy volunteers): ≤ 500 ms | single increase in QTcF ([1]; one subject dosed with 10 mg, 24 hours post-dosing): > 60 ms | QT interval prolongation (ΔQTcl) [2]: dose-dependent increase in QT interval prolongation | fold less affine at OPRD than at OPRK [3]: ~30 × | EC50 (human OPRM [4]): ~1.15 µM | Efficacy (human OPRM [4]): 3% | IC50 (human OPRM [4]): ~57 µM | Ke (human OPRM [4]): ~4.8 µM | agonism at OPRM β-arrestin-2 recruitment (human OPRM [4]): not an agonist at OPRM | e-coupling (human OPRM [4]): ~1.10 | inhibition of agonist response (up to) (human OPRM [4]): 60-100% | Kb (human OPRM [4]; pEC50, pKe): 63.1 µM | Efficacy (Emax) (OPRK): 72% | Efficacy (inhibition) (OPRK): 25% | G-protein Pathway e-coupling (OPRK): 1.72 and 1.08 | IC50 (OPRK): 100 to 300 µM | e-coupling (OPRK): 1.08 and 1.22 and 1.72 | own reduced signal level to which rival agonists are leveled down (OPRK): 70% | EC50 (OPRK; EC50): 8.75 µM and 8.7 µM | EC50 (OPRK; EC50 (potency)): 8.75 µM and 9 µM | Kb (OPRK; Ke): 15 µM and 24 µM | Kb (OPRK; pEC50, pKe): 12.6 µM and 39.8 µM | Emax (OPRK; read-out: maximal efficacy relative to Dynorphin A): 75% | Maximum serum concentration (Cmax) versus dose [5]: increased in a dose-dependent manner | CL/F ([6]; 3 mg single oral dose): 41.4 (7.0) L/h | CL/F ([6]; 10 mg single oral dose): 42.3 (12.0) L/h | Tmax ([6]; 30 mg noribogaine single oral dose): 1.75 h | CL/F ([6]; 30 mg single oral dose): 46.9 (16.4) L/h | Tmax ([6]; 60 mg noribogaine single oral dose): 1.75 h | CL/F ([6]; 60 mg single oral dose): 34.0 (11.4) L/h | Cmax and AUC versus dose ([6]; 3-60 mg single oral doses): increased linearly with dose | time of peak concentrations after oral noribogaine dosing ([6]; across dose groups, healthy volunteers): 2 to 3 h | Mean half-life ([6]; across dose groups, healthy volunteers, plasma): 28 to 50 h | Vd ([6]; male, human, plasma, oral): 1420 to 3090 L | mean AUC/24 hr ([6]; single dose of 3 mg noribogaine free base): 3.1 ng/mL | mean AUC/24 hr ([6]; single dose of 10 mg noribogaine free base): 10.6 ng/mL | mean AUC/24 ([6]; single dose of 30 mg noribogaine free base): 29.2 ng/mL | mean AUC/24 ([6]; single dose of 60 mg noribogaine free base): 61 ng/mL | TEAE: Catheter Site Infection [7, 10]: 0 | TEAE: Catheter Site Pain [7, 10]: 0 | TEAE: Catheter Site Related Reaction [7, 10]: 0 | TEAE: Cellulitis [7, 10]: 0 | TEAE: Diarrhoea [7, 10]: 0 | TEAE: Dry Mouth [7, 10]: 0 | TEAE: Ear and Labyrinth Disorders [7, 10]: 0 | TEAE: Epistaxis [7, 10]: 0 | TEAE: Euphoric Mood [7, 10]: 0 | TEAE: General Disorders and Administration Site Conditions [7, 10]: 0 | TEAE: Hyperaesthesia [7, 10]: 0 | TEAE: Infections and Infestations [7, 10]: 0 | TEAE: Limb Discomfort [7, 10]: 0 | TEAE: Malaise [7, 10]: 0 | TEAE: Nausea [7, 10]: 0 | TEAE: Oropharyngeal Pain [7, 10]: 0 | TEAE: Pseudoparalysis [7, 10]: 0 | TEAE: Respiratory, Thoracic and Mediastinal Disorders [7, 10]: 0 | TEAE: Rhinorrhoea [7, 10]: 0 | TEAE: Skin Discomfort [7, 10]: 0 | TEAE: Skin Irritation [7, 10]: 0 | TEAE: Skin and Subcutaneous Tissue Disorders [7, 10]: 0 | TEAE: Somnoience [7, 10]: 0 | TEAE: Tinnitus [7, 10]: 0 | TEAE: Tremor [7, 10]: 0 | TEAE: Urinary Tract Infection [7, 10]: 0 | TEAE: Vomiting [7, 10]: 0 | TEAE: Back Pain [7, 11]: 0 | TEAE: Catheter Site Infection [7, 11]: 0 | TEAE: Catheter Site Related Reaction [7, 11]: 0 | TEAE: Depressed Mood [7, 11]: 0 | TEAE: Dry Eye [7, 11]: 0 | TEAE: Dyspepsia [7, 11]: 0 | TEAE: Euphoric Mood [7, 11]: 0 | TEAE: Limb Discomfort [7, 11]: 0 | TEAE: Malaise [7, 11]: 0 | TEAE: Musculoskeletal and Connective Tissue Disorders [7, 11]: 0 | TEAE: Psychiatric Disorders [7, 11]: 0 | TEAE: Somnoience [7, 11]: 0 | TEAE: Urinary Tract Infection [7, 11]: 0 | TEAE: Catheter Site Infection [7, 12]: 0 | TEAE: Catheter Site Pain [7, 12]: 0 | TEAE: Depressed Mood [7, 12]: 0 | TEAE: Diarrhoea [7, 12]: 0 | TEAE: Dry Eye [7, 12]: 0 | TEAE: Dyspepsia [7, 12]: 0 | TEAE: Ear and Labyrinth Disorders [7, 12]: 0 | TEAE: Epistaxis [7, 12]: 0 | TEAE: Euphoric Mood [7, 12]: 0 | TEAE: Hyperaesthesia [7, 12]: 0 | TEAE: Malaise [7, 12]: 0 | TEAE: Oropharyngeal Pain [7, 12]: 0 | TEAE: Pseudoparalysis [7, 12]: 0 | TEAE: Psychiatric Disorders [7, 12]: 0 | TEAE: Respiratory, Thoracic and Mediastinal Disorders [7, 12]: 0 | TEAE: Rhinorrhoea [7, 12]: 0 | TEAE: Skin Discomfort [7, 12]: 0 | TEAE: Skin Irritation [7, 12]: 0 | TEAE: Skin and Subcutaneous Tissue Disorders [7, 12]: 0 | TEAE: Somnoience [7, 12]: 0 | TEAE: Tinnitus [7, 12]: 0 | TEAE: Tremor [7, 12]: 0 | hallucinatory effects ([7]; 60, 120, 180 mg single dose, opioid-dependent participants): no hallucinatory effects | Ki [8]: 1.52 ± 0.3 µM | IC50 (human OPRM [9]): 134 ± 17 µM | Ke (human OPRM [9]): 19 ± 5 µM | Ke (functional inhibition constant) (human OPRM [9]): 19.203 µM | antagonist potency, OPRM G-protein pathway (human OPRM [9]): 20 µM | e-coupling (human OPRM [9]): 1.02 and 1.10 | EC50 (human OPRM [9]; EC50): 16.1 µM | Kb (human OPRM [9]; Ke): 28 ± 14 µM | EC50 (human OPRM [9]; approximated EC50): ~16 µM | Kb (human OPRM [9]; pEC50, (Ke): pKe): 20 µM
